Residues, ends and D or L forms follow the SMILES beside them.
Tested on: Trypsin
Experiment: Proteolytic degradation
Assay type: in vitro ADME
Conditions: peptide 100 µM, trypsin 0.125 mg/ml (~5 µM), ammonium bicarbonate buffer 50 mM pH 8.5, 16 h, 37 °C, MALDI-ToF MS
Excerpt: Samples were resuspended in MQ-water containing 0.1% TFA, desalted using ZipTip-C18 columns (Millipore) and analyzed using MALDI-ToF with α-cyano-4-hydroxycinnamic acid as matrix.

For `CC[C@H](C)[C@H](NC(=O)CNC(=O)[C@H](CC(C)C)NC(=O)[C@@H](NC(=O)[C@H](Cc1ccc(O)cc1)NC(=O)[C@@H](NC(=O)[C@H](CO)NC(=O)[C@@H](NC(=O)[C@@H]1CCCN1C(=O)[C@@H](NC(=O)[C@@H](N)CO)C(C)C)[C@@H](C)O)C(C)C)[C@@H](C)O)C(=O)N[C@@H](CCCCN)C(=O)N[C@H](C(=O)N[C@@H](CC(C)C)C(=O)N[C@@H](Cc1c[nH]c2ccccc12)C(=O)N[C@@H](CO)C(=O)N[C@@H](C)C(=O)N[C@@H](Cc1ccc(O)cc1)C(=O)N[C@@H](CCCCN)C(=O)N[C@@H](Cc1c[nH]cn1)C(=O)N[C@@H](CCCNC(=N)N)C(=O)N[C@@H](CCCCN)C(=O)N[C@H](C(=O)N[C@H](C(=O)N[C@@H](CCC(=O)O)C(=O)N[C@@H](CCCCN)C(=O)N[C@@H](CO)C(=O)N[C@@H](Cc1ccccc1)C(=O)N[C@@H](CC(N)=O)C(=O)N[C@@H](CCCCN)C(=O)NCC(=O)N[C@@H](Cc1ccccc1)C(=O)N[C@@H](Cc1ccc(O)cc1)C(=O)N[C@@H](Cc1c[nH]cn1)C(=O)O)[C@@H](C)CC)[C@@H](C)O)[C@@H](C)CC` [L-PLNC8 β] (H-SVPTSVYTLGIKILWSAYKHRKTIEKSFNKGFYH-OH), the degradation by trypsin was “efficiently degraded by trypsin”.

Reference: publication PMC7046733, “Plantaricin NC8 αβ exerts potent antimicrobial activity against Staphylococcus spp. and enhances the effects of antibiotics” (Scientific Reports, 2020)
